Test results: US8071625B2, “Certain chemical entities, compositions, and methods” (Cytokinetics, Inc., priority 2006, dated 2011)

What follows are molecules tested against T1, crosslinked smooth muscle actomyosin (chicken gizzard smooth muscle myosin subfragment-1 crosslinked to cardiac or skeletal actin) (Gallus gallus, UniProt P10587) (assay: Lead optimization pyruvate kinase/horseradish peroxidase/pyruvate oxidase-coupled ATPase assay (compound dose response)). Conditions: read-out: IC50 Arithmetic Mean.
T1 construct: chicken gizzard smooth muscle myosin subfragment-1; from tissue; host or cells: chicken gizzard
Type: biochemical
In short: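 IC50 is the midpoint of a 4-parameter dose–response fit of Amplex Red fluorescence (480/615 nm). Buffer was 12 mM potassium PIPES pH 7.00 at 22 °C with 100 mM KCl, 2 mM MgCl2, 0.15 mM ATP and 2 mM phosphate, with PK/pyruvate oxidase/HRP coupling. Enzyme: smooth muscle myosin S1 crosslinked to cardiac or skeletal actin, dosed empirically by activity.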

Compared with `CCc1ccc(NC(=O)OC2CCCN(C(=O)NCc3ccccc3Cl)C2)cc1` (stereo not drawn) [N-[(2-chlorophenyl)methyl]{3-[N-(4-ethylphenyl)carbamoyloxy]piperidyl}carboxamide], `CCc1ccc(NC(=O)OC[C@H](C)N(C)C(=O)NCc2ccccc2Cl)cc1` [N-{(1S)-2-[N-(4-ethylphenyl)carbamoyloxy]-isopropyl}{[(2-chlorophenyl)methyl]amino}-N-methylcarboxamide] is 15-fold lower in IC50: 2260 nM for the first, 148 nM for the second. The second is the more potent here.

Compared with `O=C(Nc1ccc2c(c1)CCC2)OCC1(C(=O)NCc2ccccc2Cl)CCOCC1` [N-[(2-chlorophenyl)methyl]{4-[(N-indan-5-ylcarbamoyloxy)methyl](2H-3,4,5,6-tetrahydropyran-4-yl)}carboxamide], `O=C(Nc1ccccc1)OCC1(C(=O)NCc2ccccc2Cl)CCOCC1` [N-[(2-chlorophenyl)methyl]{4-[(N-phenylcarbamoyloxy)methyl](2H-3,4,5,6-tetrahydropyran-4-yl)}carboxamide] is 42-fold higher in IC50: 361 nM for the first, 15200 nM for the second.

Compared with `CCc1ccc(CC(=O)NCC2(C(=O)NCc3ccccc3Cl)CC2)cc1` [N-[({N-[(2-chlorophenyl)methyl]carbamoyl}cyclopropyl)methyl]-2-(4-ethylphenyl)acetamide], `CCc1ccc(NC(=O)NCC2(C(=O)NCc3ccccc3Cl)CC2)cc1` [N-[({N-[(2-chlorophenyl)methyl]carbamoyl}cyclopropyl)methyl][(4-ethylphenyl)amino]carboxamide] is 3.5-fold lower in IC50: 18200 nM for the first, 5230 nM for the second.

Going from `CCc1ccc(NC(=O)OCCN(C)C(=O)C(O)Cc2ccccc2C(F)(F)F)cc1` (stereo not drawn) [N-{2-[N-(4-ethylphenyl)carbamoyloxy]ethyl}-2-hydroxy-N-methyl-3-[2-(trifluoromethyl)phenyl]propanamide] to `CCc1ccc(NC(=O)OCCN(C)C(=O)CCc2ccccc2C(F)(F)F)cc1` [N-{2-[N-(4-ethylphenyl)carbamoyloxy]ethyl}-N-methyl-3-[2-(trifluoromethyl)phenyl]propanamide], the IC50 falls from 17500 nM to 1210 nM (14-fold). The second is the more potent here.

First: CCc1ccc(NC(=O)OCCNC(C)=O)cc1 [N-{2-[N-(4-ethylphenyl)carbamoyloxy]ethyl}acetamide]
Second: CCc1ccc(NC(=O)OCC[C@H](C)N(C)C(=O)NCc2ccccc2Cl)cc1 [N-{(1S)-3-[N-(4-ethylphenyl)carbamoyloxy]-1-methylpropyl}{[(2-chlorophenyl)methyl]amino}-N-methylcarboxamide]
The IC50 of the first is 88-fold higher: 17400 nM for the first, 198 nM for the second.

First: CCc1ccc(NC(=O)OC[C@H](C)NC(=O)NCc2ccccc2Cl)cc1 [N-{(1S)-2-[N-(4-ethylphenyl)carbamoyloxy]-isopropyl}{[(2-chlorophenyl)methyl]amino}carboxamide]
Second: CCc1ccc(NC(=O)OC(C)CN(C)C(=O)NCc2ccccc2Cl)cc1 (stereo not drawn) [[2-({[(2-chlorophenyl)methyl]amino}-N-methylcarbonylamino)-isopropoxy]-N-(4-ethylphenyl)carboxamide]
The IC50 of the first is 5.2-fold lower: 1630 nM for the first, 8520 nM for the second.

First: NCC(=O)N1CCC(COC(=O)Nc2ccc(C(F)(F)F)cc2Cl)(C(=O)NCc2ccccc2Cl)CC1 [[1-(2-aminoacetyl)-4-({N-[2-chloro-4-(trifluoromethyl)phenyl]carbamoyloxy}methyl)(4-piperidyl)]-N-[(2-chlorophenyl)methyl]carboxamide]
Second: NCC(=O)N1CCC(COC(=O)Nc2ccc(C(F)(F)F)cc2)(C(=O)NCc2ccccc2Cl)CC1 [[1-(2-aminoacetyl)-4-({N-[4-(trifluoromethyl)phenyl]carbamoyloxy}methyl)(4-piperidyl)]-N-[(2-chlorophenyl)methyl]carboxamide]
The IC50 of the first is 1.5-fold higher: 440 nM for the first, 285 nM for the second.

Going from `N#Cc1ccccc1CNC(=O)C1(COC(=O)Nc2ccc(C(F)(F)F)cc2)CCN(C(=O)CN)CC1` [[1-(2-aminoacetyl)-4-({N-[4-(trifluoromethyl)phenyl]carbamoyloxy}methyl)(4-piperidyl)]-N-[(2-cyanophenyl)methyl]carboxamide] to `NCC(=O)N1CCC(COC(=O)Nc2ccc(C(F)(F)F)cc2)(C(=O)NCc2cccc(Cl)c2Cl)CC1` [[(1-(2-aminoacetyl)-4-{N-[(2,3-dichlorophenyl)methyl]carbamoyl}(4-piperidyl))methoxy]-N-[4-(trifluoromethyl)phenyl]carboxamide], the IC50 falls from 3240 nM to 284 nM (11-fold).

Compared with `Cc1ccc(NC(=O)OCC2(C(=O)NCc3ccccc3Cl)CCN(C(=O)CN)CC2)cc1C(F)(F)F` [[1-(2-aminoacetyl)-4-({N-[4-methyl-3-(trifluoromethyl)phenyl]carbamoyloxy}methyl)(4-piperidyl)]-N-[(2-chlorophenyl)methyl]carboxamide], `N[C@@H](CO)C(=O)N1CCC(COC(=O)Nc2ccc(C(F)(F)F)cc2)(C(=O)NCc2ccccc2Cl)CC1` [[1-((2S)-2-amino-3-hydroxypropanoyl)-4-({N-[4-(trifluoromethyl)phenyl]carbamoyloxy}methyl)(4-piperidyl)]-N-[(2-chlorophenyl)methyl]carboxamide] is 14-fold lower in IC50: 1970 nM for the first, 138 nM for the second.

Compared with `CCc1ccc(NC(=O)OCCN(CCCCN)C(=O)NCc2ccccc2Cl)cc1` [[2-(N-(4-aminobutyl){[(2-chlorophenyl)methyl]amino}carbonylamino)ethoxy]-N-(4-ethylphenyl)carboxamide], `CCc1ccc(NC(=O)OCCN(CCO)C(=O)NCc2ccccc2Cl)cc1` [[2-({[(2-chlorophenyl)methyl]amino}-N-(2-hydroxyethyl)carbonylamino)ethoxy]-N-(4-ethylphenyl)carboxamide] is 1.6-fold lower in IC50: 346 nM for the first, 210 nM for the second. The second is the more potent here.

First: CCc1ccc(NC(=O)OCC2(C(=O)NCc3cccc(Cl)c3Cl)CCN(C(=O)CN)CC2)cc1 [[(1-(2-aminoacetyl)-4-{N-[(2,3-dichlorophenyl)methyl]carbamoyl}(4-piperidyl))methoxy]-N-(4-ethylphenyl)carboxamide]
Second: CCc1ccc(NC(=O)OCC2(C(=O)NCc3ccc(Cl)cc3Cl)CCN(C(=O)CN)CC2)cc1 [[(1-(2-aminoacetyl)-4-{N-[(2,4-dichlorophenyl)methyl]carbamoyl}(4-piperidyl))methoxy]-N-(4-ethylphenyl)carboxamide]
The IC50 of the first is 2.2-fold lower: 88 nM for the first, 197 nM for the second.

`CCc1ccc(NC(=O)OCC2(C(=O)NCc3cccc(F)c3F)CCN(C(=O)CN)CC2)cc1` [[(1-(2-aminoacetyl)-4-{N-[(2,3-difluorophenyl)methyl]carbamoyl}(4-piperidyl))methoxy]-N-(4-ethylphenyl)carboxamide] and `CCc1ccc(NC(=O)OCC2(C(=O)NCc3ccc(F)cc3Cl)CCN(C(=O)CN)CC2)cc1` [[(1-(2-aminoacetyl)-4-{N-[(2-chloro-4-fluorophenyl)methyl]carbamoyl}(4-piperidyl))methoxy]-N-(4-ethylphenyl)carboxamide] are within 1.5-fold of each other in IC50: 164 nM for the first, 158 nM for the second.

First: CCc1ccc(NC(=O)OCC2(C(=O)NCc3ccc(C)cc3C)CCN(C(=O)CN)CC2)cc1 [[(1-(2-aminoacetyl)-4-{N-[(2,4-dimethylphenyl)methyl]carbamoyl}(4-piperidyl))methoxy]-N-(4-ethylphenyl)carboxamide]
Second: CCc1ccc(NC(=O)OCC2(C(=O)NCc3ccccc3CC)CCN(C(=O)CN)CC2)cc1 [[(1-(2-aminoacetyl)-4-{N-[(2-ethylphenyl)methyl]carbamoyl}(4-piperidyl))methoxy]-N-(4-ethylphenyl)carboxamide]
The IC50 of the first is 1.7-fold lower: 576 nM for the first, 951 nM for the second. The first is the more potent here.

`CCc1ccc(NC(=O)OCC2(C(=O)NCc3ccccc3Br)CCN(C(=O)CN)CC2)cc1` [[(1-(2-aminoacetyl)-4-{N-[(2-bromophenyl)methyl]carbamoyl}(4-piperidyl))methoxy]-N-(4-ethylphenyl)carboxamide] showed an IC50 of 146 nM.
